Laboratory results published in PubChem BioAssay (NCI).
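A five-concentration, 48-hour dose response in 96-well plates underlies each endpoint, interpolated linearly between surrounding concentrations. GI50 = concentration required for 50% inhibition of growth. TGI: total growth inhibition.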

Columns and labels:
Assay in all cases: DTP human tumour cell line panel, 48 h
SN12C renal = test system: SN12C renal
NCI-H460 lung = test system: NCI-H460 lung
SK-MEL-5 melanoma = test system: SK-MEL-5 melanoma
SK-OV-3 ovarian = test system: SK-OV-3 ovarian
MOLT-4 leukemia = test system: MOLT-4 leukemia
SF-539 CNS = test system: SF-539 CNS
NCI-H23 lung = test system: NCI-H23 lung
SK-MEL-2 melanoma = test system: SK-MEL-2 melanoma
HT29 colon = test system: HT29 colon
EKVX NSCLC = test system: EKVX NSCLC
ACHN renal = test system: ACHN renal
MALME-3M melanoma = test system: MALME-3M melanoma
OVCAR-3 ovarian = test system: OVCAR-3 ovarian
A498 renal = test system: A498 renal
LOX IMVI melanoma = test system: LOX IMVI melanoma
SNB-19 CNS = test system: SNB-19 CNS
DU-145 prostate = test system: DU-145 prostate
K-562 leukemia = test system: K-562 leukemia
HL-60(TB) leukemia = test system: HL-60(TB) leukemia
U251 CNS = test system: U251 CNS
HCT-116 colon = test system: HCT-116 colon
UO-31 renal = test system: UO-31 renal
HCC-2998 colon = test system: HCC-2998 colon
NCI-H226 lung = test system: NCI-H226 lung
SW-620 colon = test system: SW-620 colon
OVCAR-4 ovarian = test system: OVCAR-4 ovarian
CCRF-CEM leukemia = test system: CCRF-CEM leukemia

## N#C/C(=C\c1ccc2c(c1)OCO2)n1nnc2ccccc21
SN12C renal
  GI50: 1320 nM
  TGI: 14800 nM
NCI-H460 lung
  GI50: 2860 nM
  TGI: > 100000 nM
SK-MEL-5 melanoma
  GI50: 1620 nM
  TGI: 12600 nM
SK-OV-3 ovarian
  GI50: 2610 nM
  TGI: 17000 nM
MOLT-4 leukemia
  GI50: 2420 nM
  TGI: > 100000 nM
SF-539 CNS
  GI50: 1480 nM
  TGI: 6270 nM
NCI-H23 lung
  GI50: 3600 nM
  TGI: 22600 nM
SK-MEL-2 melanoma
  GI50: 1230 nM
  TGI: 26900 nM
HT29 colon
  GI50: 383 nM
  TGI: > 100000 nM
EKVX NSCLC
  GI50: 1540 nM
  TGI: 16300 nM
ACHN renal
  GI50: 784 nM
  TGI: 8530 nM
MALME-3M melanoma
  GI50: 1400 nM
  TGI: 23400 nM
OVCAR-3 ovarian
  GI50: 357 nM
  TGI: 14300 nM
A498 renal
  GI50: 1760 nM
  TGI: 5280 nM
LOX IMVI melanoma
  GI50: 990 nM
  TGI: 25000 nM
SNB-19 CNS
  GI50: 1420 nM
  TGI: 13300 nM
DU-145 prostate
  GI50: 1900 nM
  TGI: 13100 nM
K-562 leukemia
  GI50: 361 nM
  TGI: > 100000 nM
HL-60(TB) leukemia
  GI50: 330 nM
  TGI: > 100000 nM
U251 CNS
  GI50: 1540 nM
  TGI: 21100 nM
HCT-116 colon
  GI50: 439 nM
  TGI: 17400 nM
UO-31 renal
  GI50: 1760 nM
  TGI: 12700 nM
HCC-2998 colon
  GI50: 1860 nM
  TGI: 7230 nM
NCI-H226 lung
  GI50: 2210 nM
  TGI: 16000 nM
SW-620 colon
  GI50: 489 nM
  TGI: > 100000 nM
OVCAR-4 ovarian
  GI50: 1660 nM
  TGI: 20300 nM
CCRF-CEM leukemia
  GI50: 491 nM
  TGI: > 100000 nM
